# Article PMC9889419 (Pharmacological Reports, 2022)
# Structures can show the parent of a compound that is named as a salt.
# What was measured:
# STZ-treated mice = assay: Streptozotocin-induced diabetic neuropathy, hot plate test; assay type: in vivo
# Procedure: Induction of diabetes. To induce diabetes the mice were injected with a single ip streptozotocin (STZ, Sigma-Aldrich, Germany) dose (200 mg/kg) dissolved in 0.1 N citrate buffer. Blood glucose levels were measured 1 h before and repeatedly 1, 2 and 3 weeks after STZ injection using a blood glucose monitoring system (AccuChek Active, Roche, France). Blood samples (5 µL) for the measurement of glucose concentration were obtained from the mouse tail vein. The animals were defined as diabetic when their blood glucose concentration exceeded 300 mg/dL and only those mice were used as diabetic mice in further tests. The body weight of mice was monitored 1 h before and 21 days after STZ injection.
# Assessment of heat hyperalgesia in STZ-treated mice—hot plate test. Thermal hyperalgesia was assessed using the hot plate apparatus (Bioseb, France). In this test, after the establishment of pre-drug latency to pain reaction for each animal, the mice were treated with the tested compound and 30 min later they were placed into a glass cylinder on a hot plate set at 55 °C and observed for a nocifensive response (hind paw licking or jumping). The cut-off time was established at 30 s.
# rats = conditions: ip, […]
# Procedure: The assays were carried out within the Epilepsy Therapy Screening Program (ETSP, previously known as the Anticonvulsant Screening Program, ASP), Epilepsy Branch, National Institute of Neurological and Communicative Disorders and Stroke, National Institutes of Health in Rockville, MD, USA [23].
# mice = assay: Picrotoxin-induced seizures; assay type: in vivo; conditions: ip
Compound,"effect in hot plate test (STZ-treated mice; 1 mg/kg, STZ-treated mice)","latency to pain reaction (STZ-treated mice; 10 mg/kg, STZ-treated mice) [s]","prolongation of latency vs. diabetic control (STZ-treated mice; 10 mg/kg, STZ-treated mice) [%]","latency to pain reaction (STZ-treated mice; 30 mg/kg, STZ-treated mice) [s]","prolongation of latency vs. diabetic control (STZ-treated mice; 30 mg/kg, STZ-treated mice) [%]","STZ-induced pain (hot plate): active at (STZ-treated mice; mice, ip) [mg/kg]",LTG-resistant amygdala seizures: active at (rats) [mg/kg],Picrotoxin-induced seizures ED50 (mice) [mg/kg]
"CCC(CO)NCCOc1c(C)cccc1Cl (centres unmarked) [KM-408, R,S-2-((2-(2-chloro-6-methylphenoxy)ethyl)amino)butan-1-ol hydrochloride]",not effective,15.8 ± 2.2,63,21.6 ± 2.2,123,10,,
"CCC(CO)NCCOc1c(C)cccc1Cl (centres unmarked) [Compound 4, R,S-2-((2-(2-chloro-6-methylphenoxy)ethyl)amino)butan-1-ol]",,,,,,,15,> 70
